Consider eight compounds from ChEMBL document CHEMBL1134128, “Rational design of a new series of pronucleotide” (Bioorg Med Chem Lett, 2001).

Each structure is given as a SMILES string.

A short description of data set [1]: The pKa value was reported. Format: physicochemical.
Data set [2] in a line: Half life were determined in CEM-SS cell extract in decomposition step 1. In kind it is ADME. To be noted: human.
Data set [3] can be described thus: Half life in human serum. In kind it is ADME, cell-free.
A short description of data set [4]: Partition coefficient (logP). In kind it is physicochemical. To be noted: octanol/water.
For data set [5], the system named is CEM-SS. The data set can be described thus: Effective concentration to inhibit HIV replication in TK CEM-SS cell line and the value is represented as EC50. To be noted: Homo sapiens. In kind it is functional, cell-based.
Data set [6] concerns CEM-SS. The data set can be described thus: Cytotoxic concentration to inhibit HIV replication in TK CEM-SS cell line and the value is represented as CC50. Conditions: Homo sapiens. Format: functional.
Data set [7] in a line: Half life in culture medium containing 10% of heat inactivated foetal calf serum. Format: ADME, cell-free, Bos taurus. To be noted: cattle.
The subject of data set [8] is CEM-SS. The data set can be described thus: Cytotoxic concentration to inhibit HIV replication in TK CEM-SS cell line. Conditions: Homo sapiens. Format: functional.
The test system of data set [9] is CEM-SS. In words: Effective concentration to inhibit HIV replication in TK CEM-SS cell line. Format: functional, cell-based. Conditions: Homo sapiens.

On to `CCCCNP(=O)(O)OCC1OC(n2cc(C)c(=O)[nH]c2=O)CC1N=[N+]=[N-]` (centres undefined), for which the pKa in [1] came to 10.6. Further, the half-life is 1.3 h in [2], 29 h in [3] and 165 h in data set [7]. Besides, in data set [4], the logP was 2.67. This compound also had a 50% effective concentration (EC50) in the data set with CEM-SS [5] of 1.2 µM. Further, the cytotoxic concentration (CC50) in the data set with CEM-SS [6] is above 100 µM.
For `Cc1cn(C2CC(N=[N+]=[N-])C(COP(=O)(Nc3ccccc3)OCCSC(=O)C(C)(C)C)O2)c(=O)[nH]c1=O` (centres undefined), the pKa in data set [1] turned out to be 4.68. Further, the half-life in data set [2] is 1.4 h; in data set [3], 23 h; in [7], 100 h. The logP in [4] was 2.55. In addition, the EC50 with CEM-SS [5] was above 10 µM. For the same compound, the CC50 in the data set on CEM-SS [6] was above 10 µM.
Consider `Cc1cn(C2CC(N=[N+]=[N-])C(COP(=O)(O)N3CCOCC3)O2)c(=O)[nH]c1=O` (centres undefined), for which, in [1], the pKa amounted to 8.36. Also, the half-life was 2.1 h in data set [2], 23 h in [3] and 385 h in data set [7]. In data set [4], this compound registered a logP of 1.86. For the same compound, the EC50 with CEM-SS [5] stood at 2 µM. The same compound had a half-maximal cytotoxic concentration (CC50) in the data set on CEM-SS [6] above 100 µM.
For the compound `Cc1cn([C@H]2C[C@H](N=[N+]=[N-])[C@@H](CO)O2)c(=O)[nH]c1=O` [ZIDOVUDINE], in the data set on CEM-SS [8], the CC50 was above 100 µM. In the data set on CEM-SS [9], the EC50 is above 100 µM.
For the compound `Cc1cn(C2CC(N=[N+]=[N-])C(COP(=O)(NC(C)(C)C)OCCSC(=O)C(C)(C)C)O2)c(=O)[nH]c1=O` (centres undefined), the pKa in [1] is 10.4. The half-life in data set [2] was 1.2 h; in [3], 23 h; in data set [7], 350 h. The compound also returned a logP in [4] of 2.45. The same compound returned an EC50 in the data set on CEM-SS [5] of 1.5 µM. For the same compound, the CC50 in the data set on CEM-SS [6] was above 100 µM.
`Cc1cn(C2CC(N=[N+]=[N-])C(COP(=O)(NC(C)C)OCCSC(=O)C(C)(C)C)O2)c(=O)[nH]c1=O` (centres undefined) displayed a pKa in data set [1] of 10.6. Further, the half-life is 1.2 h in data set [2], 10 h in data set [3] and 200 h in [7]. The logP in data set [4] stood at 1.91. In the data set with CEM-SS [8], the cytotoxic concentration (CC50) is above 100 µM. This compound had an EC50 with CEM-SS [9] of 0.63 µM.
Compound `Cc1cn(C2CC(N=[N+]=[N-])C(COP(=O)(O)N3CCCCC3)O2)c(=O)[nH]c1=O` (centres undefined) gave a pKa in data set [1] of 11.1. In [2], this compound showed a half-life of 1.2 h. In [4], this compound had a logP of 2.77. This compound also showed an EC50 in the data set with CEM-SS [5] of 5.2 µM. Also, the CC50 with CEM-SS [6] was above 100 µM.
In data set [1], `CCCCN(CCCC)P(=O)(O)OCC1OC(n2cc(C)c(=O)[nH]c2=O)CC1N=[N+]=[N-]` (centres undefined) showed a pKa of 11.2. The half-life in data set [2] was 0.96 h; in data set [3], 23 h; in data set [7], 136 h. The lipophilicity (logP) in [4] was determined as 4. The compound also displayed a concentration giving a half-maximal response (EC50) with CEM-SS [5] above 10 µM. In the data set on CEM-SS [6], this compound had a CC50 above 10 µM.

By pKa is commonly meant the negative logarithm of the acid dissociation constant. Read a low pKa as a group that gives up its proton readily. By half-life is commonly meant how long it takes for the measured level to halve. A high value points to slow decline. For orientation: logP means a log measure of how a compound divides between an organic and an aqueous phase. The low end stands for a more hydrophilic compound, the high end for a more lipophilic compound. Usually EC50 stands for the concentration at which the effect is half-maximal. Higher therefore signals weaker potency. One may read the CC50 as the concentration giving 50% cytotoxicity. The low end stands for harm at low concentration, the high end for better tolerance by the cells.
